Article PMC9794608 (Frontiers in Veterinary Science, 2022)

Assays:
[1] = Pilot single oral dose plasma trametinib concentrations (initial formulation); format: in vivo; details: fasted dogs
Protocol: (§1) Each 50 μL aliquot of known concentration standards, quality control sample, or study sample was mixed with 200 μL of working internal standard solution (10 ng/mL in acetonitrile). The samples were vortexed and centrifuged. A 150 μL aliquot of the resulting supernatant was transferred to a clean 96-well plate, evaporated, and reconstituted with 100 μL of water/acetonitrile (40/60, v/v). An aliquot was injected onto an LC-MS/MS XBridge BEH C18 liquid chromatography system (Waters Associates, Framingham, MA) having 50 x 2.1 mm (2.5 μm particle size) column with an isocratic flow consisting of water/formic acid (100/0.1, v/v) and acetonitrile/formic acid (100/0.1, v/v) at a flow rate of 0.3000 mL/min for analysis. The analyte and internal standard were detected using an API 6500+ triple quadrupole LC-MS/MS system (AB Sciex, LLC, Framingham, MA) equipped with an ESI (TurboIonSpray®) ionization source operated in the positive ion mode.
These analytical findings, even under animal fasting conditions, were independently verified at the NCI Clinical Pharmacology Program. […] Consequently, trametinib was reformulated for this study by […] with equimolar dimethyl sulfoxide (DMSO) (Wedgewood Pharmacy, Swedesboro, NJ), consistent with the human formulation ([…]®, Novartis), and used for all subsequent evaluations. […]

laboratory beagle dogs = assay: Repeat dose tolerability: clinical observations, hematology, serum chemistry, coagulation, urinalysis; format: in vivo
Protocol: (§2) Laboratory Beagle dogs (Charles River Labs, Mattawan, MI) served as surrogates in testing compounds proposed for application in canine clinical cancer care. The animals were at least six months old and weighed 6.4–8.8 kg at the initiation of study. They had routine veterinary care and had not been used in any previous studies. The study was conducted in AAALAC-accredited animal facilities [Charles River Laboratories, Inc., Mattawan, MI; NIH Office of Laboratory Animal Welfare Assurance approval (https://olaw.nih.gov/assured/app/index.html)], under review, monitoring, and approval of the facility's Institutional Animal Care and Use Committee according to U.S. Public Health Service national guidelines and regulations for the care and use of laboratory animals. The study was not designed to incorporate Good Laboratory Practices (GLP) regulatory criteria. Animals on study were monitored daily or more frequently and body weights were recorded, while periodic specimens were obtained for laboratory analyses. Clinical pathology analyses were included for hematology, serum chemistry, coagulation, urinalysis, and chemical bioanalysis was accomplished for pharmacokinetics (PK) (Table 1, repeat dose study) (Charles River Laboratories, Mattawan, MI).
(§3) Six male and six female beagle dogs were enrolled in a parallel, three-arm, fixed, repeat oral-dose study. […] All dogs were dosed on study day 1 to obtain single dose PK samples, and then dosed serially days 4–20. Dogs were fasted overnight prior to dosing and fed ad libitum 2 h (hrs) following dose administration.
On days 10 and 15, a 2-h post-dose sample was collected. […] Treatment schedule and clinical pathology specimen sampling intervals are outlined in Table 1. […]
Sampling for hematology, serum chemistry, coagulation and urinalysis was conducted to facilitate monitoring treatment effects over various time points, and values obtained were compared to pre-treatment measurements for each subject (Table 1).

[2] = cited from earlier work
[3] = set-up: method as in PMID 32943547; details: combination with sapanisertib, p <0.001; cited from earlier work
[4] = Plasma pharmacokinetics after single and repeat oral dose, LC-MS/MS, non-compartmental analysis; format: in vivo, Beagle dogs; details: for Tmax: TMAX (trametinib in plasma), median (range)
Protocol: as §2
as §3, with “study. […] In Group 2, two male (23001, 23002) and two female (23501, 23502) dogs were given sapanisertib alone (0.1 mg/kg) every other day (p.o., QOD).” for “study.”
Plasma samples for PK were collected at pre-dose (-7 days), then beginning day 1 following the initial dose of each study group at 1, 2, 4, 8, 24, 48, and 72 h. On day 6, plasma samples were collected pre-dose, then 1, 2, 4, 8, and 24 h post-dose. On days 10 and 15, a 2-h post-dose sample was collected. On day 20, plasma samples were drawn at pre-dose and 1, 2, 4, 8, 24, 48, and 72 h post-dose. Treatment schedule and clinical pathology specimen sampling intervals are outlined in Table 1.
as §1
A non-compartmental approach to PK analysis was employed using Phoenix WinNonlin v8.3 (Certara Corp, Cary, NC) that was validated per FDA 21CFR Part 11 regulations. The maximum plasma concentration (CMAX) and the time of maximum plasma concentration (TMAX) were recorded as observed values. […] AUCINF (the AUC from time zero to infinity) was calculated by extrapolation by dividing CLAST (the last measurable drug concentration) by the rate constant of the terminal phase, λZ. This constant was determined from the slope of the terminal phase of the concentration-time curve using uniformly-weighted least-squares as the estimation procedure and acceptance criteria of (i) adjusted r^2 > 0.8, (ii) includes > 3 time points in the terminal phase occurring after the TMAX. […]

cytochrome P450 CYP3A4 = details: cited from earlier work
[5] = ref MEKINIST Prescribing Information

SMILES: CC(=O)Nc1cccc(-n2c(=O)n(C3CC3)c(=O)c3c(Nc4ccc(I)cc4F)n(C)c(=O)c(C)c32)c1 [trametinib, as initially formulated, trametinib]
- Plasma trametinib concentration after single oral dose ([1]; 0.06 or 0.03 mg/kg, inconsistent, frequently below assay detection limit, for each dose one of two dogs below detection): < 0.1 ng/mL
- Time to detection of trametinib in plasma post dose ([1]; single oral dose 0.06 or 0.03 mg/kg): ≥ 24 h

SMILES: CC(=O)Nc1cccc(-n2c(=O)n(C3CC3)c(=O)c3c(Nc4ccc(I)cc4F)n(C)c(=O)c(C)c32)c1 [Trametinib, trametinib dimethyl sulfoxide]
- Dogs with minimal to marked increases in urine protein concentration (laboratory beagle dogs; Day 25, greater than pre-study values, 4 dogs per group): one male dog
- Urine protein concentration, highest value (up to) (laboratory beagle dogs; Day 25, semi-quantitatively by urine dipstick): ≥ 1,000 mg/dL
- Globulin concentration, times pre-study (up to) (laboratory beagle dogs; Days 7, 20, and/or 25): up to 1.45 x
- Serum phosphorus concentrations, times pre-study (as low as) (laboratory beagle dogs; Days 7 and 20, both sexes in all groups): ≥ 0.74 x
- Individual animal fibrinogen concentration, times pretreatment (up to) (laboratory beagle dogs; various time points, most pronounced in Group 3): up to 2.61 x
- Trametinib accumulation upon repeat daily dosing in humans [2]: up to six-fold
- Clearance of trametinib in humans [2, 5]: 1.2 mL/min/kg
- Distribution volume of trametinib in humans [2, 5]: 3.1 L/kg
- Trametinib AUC in mice during combination treatment [3]: significantly increased
- CMAX or AUC, male versus female dogs ([4]; Mann-Whitney, p > 0.05): absence of significant differences
- Cmax ([4]; both, beagle, dog, plasma, po, […], CMAX (trametinib in plasma), First dose (Day 1), trametinib […] p.o., alone or with sapanisertib 0.1 mg/kg (see label), arithmetic mean (%CV), n = 4): 0.64 ng/mL
- half-life ([4]; both, beagle, dog, plasma, po, […], T1/2 (trametinib in plasma), Steady-state (Day 20), trametinib […] p.o. q.d., mean (%CV), one subject of the trametinib-alone group excluded): 58.8 h
- Tmax ([4]; both, beagle, dog, plasma, po, […], First dose (Day 1), trametinib […] p.o., n = 4): 1.5 h
- Tmax ([4]; both, beagle, dog, plasma, po, […], Steady-state (Day 20), trametinib […] p.o. q.d., n = 4): 2 h
- Induction of cytochrome P450 CYP3A4 (cytochrome P450 CYP3A4): known inducer
